Test [1] relates to KAI1 promoter. Description: KAI1 promoter luciferase reporter assay in transfected Caco2 cells. It counts as cell-based, human. Particulars: Homo sapiens, Caco-2, 16 h, 1 μM compound, 16 hours, transfected Caco2 cells, luciferase activity relative to DMSO control (=1); read-out: Relative KAI promoter activity.
For test [2], the system named is invasion of colorectal cancer cells. Put plainly: In vivo relative invation (invasion; EV and KITENIN controls, no method described). Particulars: relative to EV (=1); KIT = KITENIN.

SMILES strings stand for the structures.

In the case of `O=C(COc1ccccc1C(=O)NCC(=O)c1ccccc1)Nc1cccc(Br)c1` [Example 225, 2-(2-((3-bromophenyl)amino)-2-oxoethoxy)-N-(2-oxo-2-phenylethyl)benzamide], the fold induction at 1 µM in test [1] is 1.35. In test [2], the “In vivo relative invation” value turned out to be 1.235.
On to `O=C(CNC(=O)c1ccccc1CN1CCN(c2ccccc2F)CC1)c1ccccc1` [Example 299, 2-((4-(2-fluorophenyl)piperazin-1-yl)methyl)-N-(2-oxo-2-phenylethyl)benzamide], for which the fold induction at 1 µM in test [1] stood at 2.17. In addition, in test [2], the “In vivo relative invation” value was found to be 1.068.
Regarding `Cc1cccc(C(=O)NCC(=O)c2ccc(N3CCOCC3)cc2)c1` [Example 141, 3-methyl-N-(2-(4-morpholinophenyl)-2-oxoethyl)benzamide], the fold induction at 1 µM in test [1] worked out at 1.06. For the same compound, in test [2], the “In vivo relative invation” value is recorded as 1.393.
As to `CCCCN(CCO)Cc1cccc(C(=O)NCC(=O)c2ccccc2)c1` [Example 244, 3-((butyl (2-hydroxyethyl)amino)methyl)-N-(2-oxo-2-phenylethyl)benzamide], the fold induction at 1 µM in test [1] came to 1.51. Besides, the “In vivo relative invation” value in test [2] stood at 1.1.
On to `O=C(CNC(=O)c1ccccc1OC1CCN(C(=O)C2CCCCC2)CC1)c1ccccc1` [Example 165, 2-((1-(cyclohexanecarbonyl)piperidin-4-yl)oxy)-N-(2-oxo-2-phenylethyl)benzamide], for which the fold induction at 1 µM in test [1] turned out to be 1.07. Besides, the “In vivo relative invation” value in test [2] was determined as 1.133.
As for `O=C(CNC(=O)c1cccc(CN2CCN(c3ncccn3)CC2)c1)c1ccccc1` [Example 235, N-(2-oxo-2-phenylethyl)-3-((4-(pyrimidin-2-yl)piperazin-1-yl)methyl)benzamide], in test [1], the fold induction at 1 µM amounted to 1.44. In test [2], the “In vivo relative invation” value was 1.133.
Taken in the same sequence, the figures for `CN(Cc1ccccc1C(=O)NCC(=O)c1ccccc1)C1CCCCC1` [Example 298, 2-((cyclohexyl(methyl)amino)methyl)-N-(2-oxo-2-phenylethyl)benzamide] were 1.34 and 1.213.
As to `C=CC(=O)NCC(=O)c1ccc(Cl)cc1` [Example 50, N-(2-(4-chlorophenyl)-2-oxoethyl)acrylamide], the fold induction at 1 µM in test [1] stood at 0.94. The “In vivo relative invation” value in test [2] is on record as 1.089.
As to `CN(C)c1ccc(C(=O)CNC(=O)c2ccccc2C(F)(F)F)cc1` [Example 112, N-(2-(4-(dimethylamino)phenyl)-2-oxoethyl)-2-(trifluoromethyl)benzamide], the fold induction at 1 µM in test [1] turned out to be 2.82. The “In vivo relative invation” value in test [2] was 0.9835.
For the compound `CCCCN(CC)Cc1cccc(C(=O)NCC(=O)c2cccc(OC)c2)c1` [Example 290, 3-((butyl (ethyl)amino)methyl)-N-(2-(3-methoxyphenyl)-2-oxoethyl)benzamide], the fold induction at 1 µM in test [1] turned out to be 1.23. For the same compound, the “In vivo relative invation” value in test [2] stood at 0.9234.
Regarding `O=C(CNC(=O)c1ccc(CN2CCN(c3ccccc3F)CC2)cc1)c1ccccc1` [Example 257, 4-((4-(2-fluorophenyl)piperazin-1-yl)methyl)-N-(2-oxo-2-phenylethyl)benzamide], the fold induction at 1 µM in test [1] came to 1.36. The “In vivo relative invation” value in test [2] was found to be 1.338.
For the compound `COc1cccc(C(=O)CNC(=O)c2cccc(CN3CCOCC3)c2)c1` [Example 293, N-(2-(3-methoxyphenyl)-2-oxoethyl)-3-(morpholinomethyl)benzamide], in test [1], the fold induction at 1 µM was 1.25. In test [2], the “In vivo relative invation” value came out at 1.174.
Turning to `COc1ccc(NC(=O)COc2ccccc2C(=O)NCC(=O)c2ccccc2)cc1OC` [Example 216, 2-(2-((3,4-dimethoxyphenyl)amino)-2-oxoethoxy)-N-(2-oxo-2-phenylethyl)benzamide], in test [1], the fold induction at 1 µM came out at 1.2. Further, the “In vivo relative invation” value in test [2] worked out at 1.255.
Taken in the same sequence, the figures for `O=C(CNC(=O)c1ccccc1F)c1ccc(N2CCOCC2)cc1` [Example 137, 2-fluoro-N-(2-(4-morpholinophenyl)-2-oxoethyl)benzamide] were 1.19 and 1.231.
Taken in the same sequence, the figures for `C=CCN(CC=C)Cc1ccc(C(=O)NCC(=O)c2ccccc2)cc1` [Example 265, 4-((diallylamino)methyl)-N-(2-oxo-2-phenylethyl)benzamide] were 1.91 and 1.343.
In the case of `O=C(COc1ccccc1C(=O)NCC(=O)c1ccccc1)NC1CCCCC1` [Example 230, 2-(2-(cyclohexylamino)-2-oxoethoxy)-N-(2-oxo-2-phenylethyl)benzamide], the fold induction at 1 µM in test [1] was 1.08. The “In vivo relative invation” value in test [2] was 1.267.
For `COc1cc(OC)cc(C(=O)NCC(=O)c2ccc(N(C)C)cc2)c1` [Example 121, N-(2-(4-(dimethylamino)phenyl)-2-oxoethyl)-3,5imethoxybenzamide], in that order: 0.96 and 1.203.
For `COCc1ccccc1C(=O)N1CCC(Oc2ccccc2C(=O)NCC(=O)c2ccccc2)CC1` [Example 169, 2-((1-(2-(methoxymethyl)benzoyl)piperidin-4-yl)oxy)-N-(2-oxo-2-phenylethyl)benzamide], in that order: 0.99 and 1.186.
Turning to `O=C(CCc1ccccc1)NCC(=O)c1ccc(Cl)cc1` [Example 49, N-(2-(4-chlorophenyl)-2-oxoethyl)-3-phenylpropanamide], in test [1], the fold induction at 1 µM stood at 0.7. In test [2], the “In vivo relative invation” value is recorded as 1.197.
Taken in the same sequence, the figures for `CN(C)c1ccc(C(=O)CNC(=O)C2CC2)cc1` [Example 100, N-(2-(4-(dimethylamino)phenyl)-2-oxoethyl)cyclopropanecarboxamide] were 1.62 and 1.094.
With `CC(C)CCNC(=O)COc1ccccc1C(=O)NCC(=O)c1ccccc1` [Example 229, 2-(2-(isopentylamino)-2-oxoethoxy)-N-(2-oxo-2-phenylethyl)benzamide], the fold induction at 1 µM in test [1] is 1.06. The “In vivo relative invation” value in test [2] stood at 1.245.
In the case of `O=C(CNC(=O)c1ccc(CN(C2CCCCC2)C2CCCCC2)cc1)c1ccccc1` [Example 270, 4-((dicyclohexylamino)methyl)-N-(2-oxo-2-phenylethyl)benzamide], in test [1], the fold induction at 1 µM worked out at 1.47. In test [2], the “In vivo relative invation” value worked out at 1.238.
In the case of `O=C(CNS(=O)(=O)c1cccc([N+](=O)[O-])c1)c1ccc(Cl)cc1` [Example 63, N-(2-(4-chlorophenyl)-2-oxoethyl)-3-nitrobenzenesulfonamide], in test [1], the fold induction at 1 µM was 0.7. In addition, the “In vivo relative invation” value in test [2] came out at 1.102.
Regarding `COc1ccc(C(=O)NCC(=O)c2ccc(Cl)cc2)cc1` [Example 52, N-(2-(4-chlorophenyl)-2-oxoethyl)-4-methoxybenzamide], in test [1], the fold induction at 1 µM is 1.36. In test [2], the “In vivo relative invation” value turned out to be 1.158.
With `O=C(COc1ccccc1C(=O)NCC(=O)c1ccccc1)Nc1ccc(Oc2ccccc2)cc1` [Example 221, 2-(2-oxo-2-((4-phenoxyphenyl)amino)ethoxy)-N-(2-oxo-2-phenylethyl)benzamide], the fold induction at 1 µM in test [1] is 0.961. In test [2], the “In vivo relative invation” value turned out to be 1.322.
Regarding `O=C(CNC(=O)c1cccc(OC(F)(F)F)c1)c1ccccc1` [Example 39, N-(2-oxo-2-phenylethyl)-3-(trifluoromethoxy)benzamide], in test [1], the fold induction at 1 µM was determined as 1.21. The “In vivo relative invation” value in test [2] came to 0.5984.
As for `CN(C)c1ccc(C(=O)CNS(=O)(=O)Cc2ccccc2)cc1` [Example 110, N-(2-(4-(dimethylamino)phenyl)-2-oxoethyl)-1-phenylmethanesulfonamide], the fold induction at 1 µM in test [1] was 1.49. In addition, the “In vivo relative invation” value in test [2] was 1.009.
For `O=C(CNC(=O)C1CC1)c1ccc(Cl)cc1` [Example 56, N-(2-(4-chlorophenyl)-2-oxoethyl)cyclopropanecarboxamide], in that order: 0.92 and 1.249.

Values taken from patent US20230150924A1, “NOVEL COMPOUND HAVING CANCER METASTASIS INHIBITORY ACTIVITY, PREPARATION METHOD THEREFOR, AND PHARMACEUTICAL COMPOSITION FOR INHIBITING CANCER METASTASIS AND INVASION OR TREATING COLORECTAL CANCER, COMPRISING COMPOUND” (CELLGENTEK CO., LTD., priority 2019, published 2023).
